Laboratory results from the NIST ThermoML archive (doi:10.1021/je050021e).
Numbers after ± are expanded uncertainties.

Legend:
[1] = Liquid
[2] = xn = mol fraction of the nth substance listed; settings: Liquid, x2 = 0

## CC(=O)N1CCOCC1 [4-acetylmorpholine]
[1]; 298.15 K, 101 kPa
  mass density: 1110.33 ± 0.61 kg/m3
  viscosity: 8.48 ± 0.23 mPa·s
[1]; 303.15 K, 101 kPa
  mass density: 1106 ± 0.6 kg/m3
  viscosity: 7.1 ± 0.2 mPa·s
[1]; 313.15 K, 101 kPa
  mass density: 1097.35 ± 0.6 kg/m3
  viscosity: 5.18 ± 0.15 mPa·s
[1]; 323.15 K, 101 kPa
  mass density: 1088.74 ± 0.59 kg/m3
  viscosity: 3.96 ± 0.12 mPa·s
[1]; 333.15 K, 101 kPa
  mass density: 1080.14 ± 0.59 kg/m3
  viscosity: 3.12 ± 0.1 mPa·s
[1]; 343.15 K, 101 kPa
  mass density: 1071.55 ± 0.58 kg/m3
  viscosity: 2.55 ± 0.08 mPa·s

## O [water] + COCCOCCOCCOC
[2]; 303.15 K, 101 kPa
  viscosity: 0.89 ± 0.022 mPa·s
[2]; 313.15 K, 101 kPa
  viscosity: 0.6531 ± 0.017 mPa·s
[2]; 323.15 K, 101 kPa
  viscosity: 0.547 ± 0.015 mPa·s
[2]; 323.15 K, 101.3 kPa
  mass density: 988.04 ± 0.09 kg/m3
[2]; 333.15 K, 101 kPa
  viscosity: 0.466 ± 0.013 mPa·s
[2]; 333.15 K, 101.3 kPa
  mass density: 983.12 ± 0.09 kg/m3
[2]; 343.15 K, 101 kPa
  viscosity: 0.4049 ± 0.011 mPa·s
[2]; 343.15 K, 101.3 kPa
  mass density: 977.77 ± 0.09 kg/m3

## O [water] + CC(=O)N1CCOCC1
[2]; 298.15 K, 101 kPa
  viscosity: 0.8903 ± 0.029 mPa·s
[2]; 303.15 K, 101 kPa
  viscosity: 0.7976 ± 0.026 mPa·s
[2]; 313.15 K, 101 kPa
  viscosity: 0.6531 ± 0.022 mPa·s
[2]; 323.15 K, 101 kPa
  mass density: 988.04 ± 0.53 kg/m3
  viscosity: 0.547 ± 0.019 mPa·s
[2]; 333.15 K, 101 kPa
  mass density: 983.12 ± 0.53 kg/m3
  viscosity: 0.466 ± 0.017 mPa·s
[2]; 343.15 K, 101 kPa
  mass density: 977.77 ± 0.52 kg/m3
  viscosity: 0.4049 ± 0.015 mPa·s

## COCCOCCOCCOC [2,5,8,11-tetraoxadodecane]
[1]; 303.15 K, 101 kPa
  viscosity: 1.77 ± 0.04 mPa·s
[1]; 303.15 K, 101.3 kPa
  mass density: 975.86 ± 1 kg/m3
[1]; 313.15 K, 101 kPa
  viscosity: 1.48 ± 0.04 mPa·s
[1]; 313.15 K, 101.3 kPa
  mass density: 966.36 ± 0.99 kg/m3
[1]; 323.15 K, 101 kPa
  viscosity: 1.26 ± 0.03 mPa·s
[1]; 323.15 K, 101.3 kPa
  mass density: 956.85 ± 0.98 kg/m3
[1]; 333.15 K, 101 kPa
  viscosity: 1.08 ± 0.03 mPa·s
[1]; 333.15 K, 101.3 kPa
  mass density: 947.32 ± 0.97 kg/m3
[1]; 343.15 K, 101 kPa
  viscosity: 0.945 ± 0.025 mPa·s
[1]; 343.15 K, 101.3 kPa
  mass density: 937.72 ± 0.96 kg/m3
